For 17 compounds, IC50 and inhibition results are on record in patent EP0628551A1, “Semicyclic urea derivatives as antihistaminic agents” (SHIONOGI & CO., LTD., priority 1993, dated 1994).

In brackets after ≈: the same amount, converted by molar mass.

In one assay the test system is ileum of a guinea pig. The assay can be described thus: Evaluation of antihistaminic effects in vitro (inhibition of histamine-induced contraction of isolated ileum, Magnus method). It is filed as cell-based. The note with it: Cavia porcellus; guinea pig ileum in saline solution at 37°C; histamine diphosphate 0.5 µg/ml; subject compound 0.03 to 10 µg/ml; 50% inhibition of submaximal contraction; read-out: Antihistaminic effect IC50. The method, then:
The effects of Compound I of the present invention and salts thereof as an antiallergic agents can be evaluated by various methods for measuring antiallergic activity, for example by conducting the following tests (1) and (2). • (1) Antihistaminic effect evaluation test in vitro Histamine diphosphate and Compound I of the present invention or salts thereof are added to an ileum of a guinea pig in a saline solution. The concentration (at which the contraction of the ileum by histamine is inhibited by 50%) of Compound I of the present invention is measured. • (2) Histamine₁ receptor (H₁ receptor) in vitro binding inhibition test As a standard material which binds to a H₁ receptor, pyrilamine is used. Compound I of the present invention is added with varying concentrations to a mixture containing a receptor sample prepared by homogenizing a cerebral cortex of a rat and [³H]-pyrilamine, and incubated. From radioactivity of [³H]-pyrilamine which is bound to the receptor sample, the concentration (IC₅₀) of Compound I inhibiting the specific binding of [³H]-pyrilamine to the receptor sample is measured to obtain an inhibition constant (Ki). Compound I of the present invention has a lower degree of migration to brain. Thus, Compound I has less side effects on the central nervous system such as sleepiness, because of its less frequent binding to the H₁ recepter in brain. The extent of migration of Compound I or salts thereof to the brain can be obtained by the following test method 3. • (3) H₁ receptor binding inhibition test ex vivo A cerebral cortex of a mouse orally administered with Compound I of the present invention is homogenized to prepare a receptor sample. The receptor sample is incubated with [³H]-pyrilamine. From the radioactivity of [³H]-pyrilamine bound to the receptor sample, the inhibition of Compound I with respect to the specific biding of pyrilamine to the receptor sample is obtained.
The following experiments were conducted in accordance with the method of R. Magnus (Arch. F.D. Ges. Physiol., 102: 123-151, 1904). Ileums derived from guinea pigs were respectively soaked in a saline solution at 37°C. Then, histamine diphosphate and a subject compound which had been obtained in the Examples shown in Table 1 were added to each saline solution so that the concentrations of histamine diphosphate and the subject compound are 0.5 µg/ml and 0.03 to 10 µg/ml, respectively. The ileum generally contracts by histamine; however, in the case where the subject compound is present, the antagonistic effect of the subject compound on histamine inhibits the contraction of the ileum. The contraction degree of the ileum was measured at each concentration of the added subject compound, and the concentration IC₅₀ of the subject compound which inhibited 50% submaximal contraction of the ileum by histamine was obtained. The submaximal contraction was obtained in the case where the subject compound was not added. […] When the value of IC₅₀ is lower, the subject cmpound has stronger antihistaminic effects.

The target in the next assay is T1, H₁ receptor (Mus musculus, UniProt P70174).
T1 construct: A cerebral cortex of a mouse orally administered with Compound I of the present invention is homogenized to prepare a receptor sample; from tissue; host or cells: mouse (Slc-ddY, male) cerebral cortex homogenate after oral dosing
T1 sequence (P70174 whole entry): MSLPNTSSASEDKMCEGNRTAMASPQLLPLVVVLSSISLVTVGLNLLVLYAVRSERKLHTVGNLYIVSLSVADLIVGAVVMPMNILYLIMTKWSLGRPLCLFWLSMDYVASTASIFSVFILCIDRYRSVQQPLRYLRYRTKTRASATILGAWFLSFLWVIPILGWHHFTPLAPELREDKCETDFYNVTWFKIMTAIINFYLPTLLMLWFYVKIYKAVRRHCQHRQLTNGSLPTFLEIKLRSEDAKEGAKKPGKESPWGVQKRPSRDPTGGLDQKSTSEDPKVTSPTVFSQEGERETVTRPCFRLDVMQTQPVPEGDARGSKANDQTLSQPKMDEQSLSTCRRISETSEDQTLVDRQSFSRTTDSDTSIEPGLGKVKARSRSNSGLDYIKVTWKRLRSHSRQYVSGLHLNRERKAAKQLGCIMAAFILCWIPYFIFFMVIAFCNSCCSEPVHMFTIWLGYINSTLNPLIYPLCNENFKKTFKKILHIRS
The assay is described as follows: H1 receptor binding inhibition test ex vivo (migration to the brain, [3H]-pyrilamine binding to cerebral cortex after oral dosing). The format is in vivo. Particulars: Slc-ddY male mice, 10 mg/kg orally, cerebral cortex removed 60 minutes after administration, [³H]-pyrilamine 4 nM, lower inhibition = lower migration to brain, read-out: [³H]-labeled pyrilamine binding inhibition ex vivo. On the procedure: The receptor sample is incubated with [³H]-pyrilamine.
Five Slc-ddY male mice were used as one group. First, 10 mg/kg of the compound of the present invention was orally administered to each mouse. The mouse were killed by decapitation 60 minutes after the administration and each cerebral cortex was removed. Each cerebral cortex was frozen on dry ice and kept in a refrigerator at -80°C. Before the experiment, each cerebral cortex was homogenized with about 10 times its volume of 50 mM of Na/K phosphate buffer (pH 7.5). A mixture of each cerebral cortex was further diluted 6 times and used as a receptor sample. A mixture of each receptor sample and [³H]-pyrilamine (4 nM) was incubated at 25°C for 30 minutes. The reaction was stopped by dilution and filtration. The radioactivity of [³H]-pyrilamine bound to the receptor sample on the filter paper was measured by a liquid scintillation counter. The specific binding of [³H]-pyrilamine to the receptor sample was obtained by subtracting the non-specific binding from the total bindings. The non-specific binding was obtained under the conditions of containing 10 µM of non-radioactive pyrilamine. The amount of protein was measured by DC protein assay (Biolad), and the inhibition of the compound of the present invention to the specific binding of [³H]-pyrilamine per 1 mg of protein was measured. […]

For `CCOC(=O)N1CCN(C(=O)NCCCN2CCC(OC(c3ccc(F)cc3)c3ccc(F)cc3)CC2)CC1` [Example 51], the concentration for half-maximal inhibition (IC50) with ileum of a guinea pig is 0.427 mg/L (≈ 0.784 µM). Also, the inhibition at 10 mg/kg at H₁ receptor was 0%.
Turning to `O=C(NCCCN1CCC(=C(c2ccccc2)c2ccccc2)CC1)N1CCN(c2ncccn2)CC1` [Example 5], the IC50 in the assay on ileum of a guinea pig amounted to 0.442 mg/L (≈ 0.89 µM). At H₁ receptor, the inhibition at 10 mg/kg is 0%.
Turning to `O=C(NCCCN1CCC(OC(c2ccccc2)c2ccccc2)CC1)N1CCN(S(=O)(=O)c2cccnc2)CC1` [Example 61], the IC50 in the assay on ileum of a guinea pig is 0.196 mg/L (≈ 0.339 µM). Moreover, at H₁ receptor, the inhibition at 10 mg/kg was 6%.
The matching figures for `CC(C)(C)OC(=O)N1CCN(C(=O)NCCCN2CCC(=C(c3ccccc3)c3ccccc3)CC2)CC1` [Example 71]: 1.12 mg/L (≈ 2.16 µM) and 7%.
The corresponding values for `O=c1[nH]c2ccccc2n1CCCN1CCN(C(c2ccccc2)c2ccccc2)CC1` [Oxatoamide, reference compound] are 1 mg/L (≈ 2.34 µM) and 17%.
In the case of `O=C(NCCN1CCC(=C(c2ccccc2)c2ccccc2)CC1)N1CCN(c2ccccn2)CC1` [Example 53], the IC50 in the assay on ileum of a guinea pig was 1.76 mg/L (≈ 3.66 µM). Also, the inhibition at 10 mg/kg at H₁ receptor was 0%.
The matching figures for `O=C(NCCCN1CCC(=C(c2ccccc2)c2ccccc2)CC1)N1CCN(S(=O)(=O)c2cccc3cccnc23)CC1` [Example 56]: 1.38 mg/L (≈ 2.26 µM) and 0%.
The corresponding values for `O=C1CCCN1C(=O)NCCCCCN1CCN(C(c2ccccc2)c2ccccc2)CC1` [Example 79] are 0.042 mg/L (≈ 0.0936 µM) and 5%.
Turning to `O=C1CSCCN1C(=O)NCCCN1CCC(OC(c2ccc(F)cc2)c2ccc(F)cc2)CC1` [Example 49], in the assay with ileum of a guinea pig, the IC50 was determined as 0.0244 mg/L (≈ 0.0484 µM). The inhibition at 10 mg/kg on H₁ receptor was 9%.
With `O=C(NCCN1CCN(C(c2ccccc2)c2ccccc2)CC1)N1CCN(c2ccccn2)CC1` [Example 39], the IC50 in the assay with ileum of a guinea pig amounted to 0.119 mg/L (≈ 0.246 µM). Further, on H₁ receptor, the inhibition at 10 mg/kg was 4%.
The matching figures for `O=C(NCCCN1CCC(OC(c2ccc(F)cc2)c2ccc(F)cc2)CC1)N1CCN(c2ccccn2)CC1` [Example 50]: 0.0817 mg/L (≈ 0.149 µM) and 2%.
Regarding `CC(C)(C)OC(=O)N1CCN(C(=O)NCCCN2CCC(OC(c3ccccc3)c3ccccc3)CC2)CC1` [Example 70], in the assay on ileum of a guinea pig, the concentration for half-maximal inhibition (IC50) was 0.0889 mg/L (≈ 0.166 µM). The inhibition at 10 mg/kg at H₁ receptor was 2%.
The matching figures for `O=C(NCCCN1CCC(OC(c2ccccc2)c2ccccc2)CC1)N1CCN(S(=O)(=O)c2cccc3cccnc23)CC1` [Example 55]: 1.14 mg/L (≈ 1.82 µM) and 0%.
The corresponding values for `O=C(NCCCN1CCC(OC(c2ccccc2)c2ccccc2)CC1)N1CCN(C(c2ccccc2)c2ccccc2)CC1` [Example 45] are 0.621 mg/L (≈ 1.03 µM) and 6%.
The matching figures for `O=C(NCCCN1CCN(C(c2ccc(F)cc2)c2ccc(F)cc2)CC1)N1CCN(c2ccccn2)CC1` [Example 43]: 0.216 mg/L (≈ 0.404 µM) and 14%.
Turning to `O=C(NCCCN1CCC(OC(c2ccccc2)c2ccccc2)CC1)N1CCN(c2ncccn2)CC1` [Example 15], the half-maximal inhibitory concentration (IC50) with ileum of a guinea pig is 0.0595 mg/L (≈ 0.116 µM). Moreover, at H₁ receptor, the inhibition at 10 mg/kg was 6%.
As to `CC(C)(C)c1ccc(C(O)CCCN2CCC(C(O)(c3ccccc3)c3ccccc3)CC2)cc1` (stereo not drawn) [Terfenadine, reference compound], in the assay with ileum of a guinea pig, the IC50 is 22.4 mg/L (≈ 47.4 µM).

A word on the IC50: it is the concentration at which inhibition is half-maximal. Usually inhibition stands for the relative decrease from the control value, in per cent.
